Source: US20170114049A1, “2,5-DISUBSTITUTED CYCLOPENTANE CARBOXYLIC ACIDS FOR THE TREATMENT OF RESPIRATORY TRACT DISEASES” (BAYER PHARMA AKTIENGESELLSCHAFT, priority 2014, published 2017)
pIC50: −log10 of the molar value. ≈ marks a conversion by molar mass, not a printed value. Values belong to the compound of their own block, whether it stands above or below them.

How the values were obtained:
[1] = biological target: T1, human macrophage elastase (HME/hMMP-12) (Homo sapiens, UniProt P39900); assay: In vitro HME inhibition test (standard or high-sensitivity); type: biochemical; details: standard or high-sensitivity HME inhibition test; read-out: HME/hMMP-12 IC50
T1 construct: 0.5 nM HME; purchased R&D Systems 917-MP
T1 sequence (P39900 106-470): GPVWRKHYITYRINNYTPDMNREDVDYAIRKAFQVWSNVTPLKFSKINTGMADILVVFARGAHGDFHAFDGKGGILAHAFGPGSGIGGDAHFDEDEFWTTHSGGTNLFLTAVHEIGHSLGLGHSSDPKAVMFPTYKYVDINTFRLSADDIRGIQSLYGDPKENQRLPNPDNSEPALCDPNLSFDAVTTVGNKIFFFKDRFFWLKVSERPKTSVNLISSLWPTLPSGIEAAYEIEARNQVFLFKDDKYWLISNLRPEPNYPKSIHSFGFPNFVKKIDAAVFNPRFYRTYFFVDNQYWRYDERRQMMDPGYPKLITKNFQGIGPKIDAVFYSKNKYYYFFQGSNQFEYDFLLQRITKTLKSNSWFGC
Experimental: The potency of the compounds according to the invention with respect to HME (MMP-12) is determined in an in vitro inhibition test. The HME-mediated amidolytic cleavage of a suitable peptide substrate leads to an increase in fluorescent light therein. The signal intensity of the fluorescent light is directly proportional to the enzyme activity. The active concentration of a test compound at which half the enzyme is inhibited (50% signal intensity of the fluorescent light) is reported as the IC50 value.
In a 384 hole microtiter plate, in a total test volume of 41 μl, the test buffer (0.1 M HEPES pH 7.4, 0.15 M NaCl, 0.03 M CaCl2, 0.004 mM ZnCl2, 0.02 M EDTA, 0.005% Brij®), the enzyme (0.5 nM HME; from R&D Systems, 917-MP, autocatalytic activation according to the manufacturer's instructions) and the intramolecularly quenched substrate [5 μM Mca-Pro-Leu-Gly-Leu-Glu-Glu-Ala-Dap(Dnp)-NH2; Bachem, M-2670] are incubated in the absence and presence of the test substance (as a solution in DMSO) at 37° C. for two hours. The fluorescence intensity of the test mixtures is measured (excitation […], emission 393 nm). The IC50 values are ascertained by plotting the fluorescent light intensity against the active ingredient concentration.
In this case, an enzyme concentration ten times lower is used (final concentration, for example, 0.05 nM) in order to achieve an elevated test sensitivity. The incubation period chosen for the test is correspondingly longer (for example 16 hours).

[2] = Determination of solubility in PBS buffer pH 6.5; details: PBS buffer pH 6.5, 1% DMSO, room temperature; for Solubility: 24 h; for solubility at 24 h: PBS buffer, pH 6.5, aqueous buffer, kinetic from dmso stock
Experimental: The test substance is dissolved in DMSO. An aliquot is taken from this solution and introduced into PBS buffer pH 6.5 (DMSO content: 1%). This solution/suspension is agitated at room temperature for 24 h. After ultracentrifugation at 114000 g for 30 min, the supernatant is removed, diluted with acetonitrile/water 8:2 and analysed by LC-MSMS. Quantification is effected by means of a five-point calibration curve of the test compound in DMSO.

[3] = system: rat hepatocytes; assay: Hepatocyte assay for determination of metabolic stability; details: after incubation with rat hepatocytes
Experimental: Seven samples from the incubation solution are taken for the LC-MS analysis within a fixed time pattern, in order to determine the half-life (i.e. the degradation) of the particular compound. This half life is used to calculate various “Clearance” parameters (CL) and “Fmax” values (see below).
The CL and Fmax values are a measure of the phase 1 and phase 2 metabolism of the compounds in the hepatocytes. In order to minimize the influence of the organic solvent on the enzymes in the incubation batches, the concentration thereof is generally limited to 1% (acetonitrile) or 0.1% (DMSO).
For all species and breeds, a hepatocyte cell count in the liver of 1.1*10^8 cells/g of liver is expected.
The parameters calculated and the meanings thereof are: • Fmax well-stirred [%] maximum possible bioavailability after oral administration • Calculation: (1-CLblood well-stirred/QH)*100 • CLblood well-stirred [L/(h*kg)] calculated blood clearance (well-stirred model) • Calculation: (QH*CLintrinsic)/(QH+CL′intrinsic) • CL′intrinsic[ml/(min*kg)] maximum ability of the liver (of the hepatocytes) to metabolize a compound (assuming that the liver blood flow is not rate-limiting) • Calculation: CLintrinsic, apparent* species-specific hepatocyte count [1.1* 10^8/g liver]*species-specific liver weight [g/kg] • CL′intrinsic, apparent[ml/(min*mg)] normalizes the elimination constant by dividing it by the hepatocyte cell count x used (x*10^6/ml) • Calculation: kcl[1/min]/(cell count [x*10^6]/incubation volume [ml]) • (QH=species-specific liver blood flow).

Compound: Cc1ccc2nnn(C[C@H]3CC[C@@H](C(=O)c4ccc(OCCC5CCOCC5)cc4)[C@@H]3C(=O)O)c(=O)c2c1 (single isomer, unassigned) [Example 21, (−)-(1RS,2SR,5RS)-2-[(6-Methyl-4-oxo-1,2,3-benzotriazin-3(4H)-yl)methyl]-5-{4-[2-(tetrahydro-2H-pyran-4-yl)ethoxy]benzoyl}cyclopentanecarboxylic acid]
pIC50 [1]: 7.11

Compound: Cc1ccc2nnn(C[C@H]3CC[C@@H](C(=O)c4ccc(OCC5CCOCC5)cc4)[C@@H]3C(=O)O)c(=O)c2c1 (racemic) [Example 18, (−)-(1RS,2SR,5RS)-2-[(6-Methyl-4-oxo-1,2,3-benzotriazin-3(4H)-yl)methyl]-5-[4-(tetrahydro-2H-pyran-4-ylmethoxy)benzoyl]cyclopentanecarboxylic acid]
Solubility [2]: 330 µg/mL (≈ 653 µM)

Compound: O=C(O)[C@@H]1[C@@H](Cn2nnc3ccc(C(F)(F)F)cc3c2=O)CC[C@H]1C(=O)c1ccc(OCCC2CCOCC2)cc1 (racemic) [Example 11, (+)-(1RS,2SR,5RS)-2-{[4-Oxo-6-(trifluoromethyl)-1,2,3-benzotriazin-3(4H)-yl]methyl}-5-{4-[2-(tetrahydro-2H-pyran-4-yl)ethoxy]benzoyl}cyclopentanecarboxylic acid]
CLblood (calculated blood clearance, well-stirred) [3]: 5 mL/min/kg
Fmax (maximum possible bioavailability after oral administration, well-stirred) [3]: 92.9%

Compound: (−)-(1RS,2SR,5RS)-2-{[4-Oxo-6-(trifluoromethyl)-1,2,3-benzotriazin-3(4H)-yl]methyl}-5-[4-(tetra-hydro-2H-pyran-4-ylmethoxy)benzoyl]cyclopentanecarboxylic acid [Example 9]
pIC50 [1]: 7.38

Compound: Cc1ccc2nnn(C[C@H]3CC[C@@H](C(=O)c4ccc(OCC5CCOCC5)cc4)[C@@H]3C(=O)O)c(=O)c2c1 (single isomer, unassigned) [Example 18, (−)-(1RS,2SR,5RS)-2-[(6-Methyl-4-oxo-1,2,3-benzotriazin-3(4H)-yl)methyl]-5-[4-(tetrahydro-2H-pyran-4-ylmethoxy)benzoyl]cyclopentanecarboxylic acid]
pIC50 [1]: 8.48

Compound: O=C(O)[C@@H]1[C@@H](Cn2nnc3ccc(C(F)(F)F)cc3c2=O)CC[C@H]1C(=O)c1ccc(SCC2CCOCC2)cc1 (racemic) [Example 15, (+)-(1RS,2SR,5RS)-2-{[4-Oxo-6-(trifluoromethyl)-1,2,3-benzotriazin-3(4H)-yl]methyl}-5-{4-[(tetrahydro-2H-pyran-4-ylmethyl)sulphanyl]benzoyl}cyclopentanecarboxylic acid]
Solubility [2]: 100 µg/mL (≈ 174 µM)
CLblood (calculated blood clearance, well-stirred) [3]: 2.67 mL/min/kg
Fmax (maximum possible bioavailability after oral administration, well-stirred) [3]: 96.1%

Compound: Cc1ccc2nnn(C[C@H]3CC[C@@H](C(=O)c4ccc(OCCC5CCOCC5)cc4)[C@@H]3C(=O)O)c(=O)c2c1 (racemic) [Example 20, (+)-(1RS,2SR,5RS)-2-[(6-Methyl-4-oxo-1,2,3-benzotriazin-3(4H)-yl)methyl]-5-{4-[2-(tetrahydro-2H-pyran-4-yl)ethoxy]benzoyl}cyclopentanecarboxylic acid]
CLblood (calculated blood clearance, well-stirred) [3]: 12.8 mL/min/kg
Fmax (maximum possible bioavailability after oral administration, well-stirred) [3]: 81.8%

Second part, the compound after the results:

pIC50 [1]: 9.32
Compound: O=C(O)[C@H]1[C@H](Cn2nnc3ccc(C(F)(F)F)cc3c2=O)CC[C@@H]1C(=O)c1ccc(SCC2CCOCC2)cc1 (racemic) [Example 13, (+/−)-(1RS,2SR,5RS)-2-{[4-Oxo-6-(trifluoromethyl)-1,2,3-benzotriazin-3 (4H)-yl]methyl}-5-{4-[(tetrahydro-2H-pyran-4-ylmethyl)sulphanyl]benzoyl}cyclopentanecarboxylic acid]

pIC50 [1]: 9.77
Compound: Cc1ccc2nnn(C[C@@H]3CC[C@H](C(=O)c4ccc(OCC5CCOCC5)cc4)[C@H]3C(=O)O)c(=O)c2c1 (racemic) [Example 16, (+/−)-(1RS,2SR,5RS)-2-[(6-Methyl-4-oxo-1,2,3-benzotriazin-3(4H)-yl)methyl]-5-[4-(tetrahydro-2H-pyran-4-ylmethoxy)benzoyl]cyclopentanecarboxylic acid]

CLblood (calculated blood clearance, well-stirred) [3]: 14.5 mL/min/kg
Fmax (maximum possible bioavailability after oral administration, well-stirred) [3]: 79.2%
Compound: O=C(O)[C@@H]1[C@@H](Cn2nnc3ccccc3c2=O)CC[C@H]1C(=O)c1ccc(OCCC2CCOCC2)cc1 (racemic) [Example 5, (+)-(1RS,2SR,5RS)-2-[(4-Oxo-1,2,3-benzotriazin-3(4H)-yl)methyl]-5-{4-[2-(tetrahydro-2H-pyran-4-yl)ethoxy]benzoyl}cyclopentanecarboxylic acid]

pIC50 [1]: 7.05
Solubility [2]: 240 µg/mL (≈ 418 µM)
Compound: O=C(O)[C@@H]1[C@@H](Cn2nnc3ccc(C(F)(F)F)cc3c2=O)CC[C@H]1C(=O)c1ccc(OCCC2CCOCC2)cc1 (stereo in doubt) [Example 12, (−)-(1RS,2SR,5RS)-2-{[4-Oxo-6-(trifluoromethyl)-1,2,3-benzotriazin-3(4H)-yl]methyl}-5-{4-[2-(tetrahydro-2H-pyran-4-yl)ethoxy]benzoyl}cyclopentanecarboxylic acid]

pIC50 [1]: 7.10
Solubility [2]: 354.9 µg/mL (≈ 702 µM)
Compound: O=C(O)[C@@H]1[C@@H](Cn2nnc3ccccc3c2=O)CC[C@H]1C(=O)c1ccc(OCCC2CCOCC2)cc1 (stereo in doubt) [Example 6, (−)-(1RS,2SR,5RS)-2-[(4-Oxo-1,2,3-benzotriazin-3(4H)-yl)methyl]-5-{4-[2-(tetrahydro-2H-pyran-4-yl)ethoxy]benzoyl}cyclopentanecarboxylic acid]

pIC50 [1]: 10.52
solubility at 24 h [2]: 250 µg/mL (≈ 494 µM)
Compound: Cc1ccc2nnn(C[C@H]3CC[C@@H](C(=O)c4ccc(OCC5CCOCC5)cc4)[C@@H]3C(=O)O)c(=O)c2c1 (single isomer, unassigned) [Example 17, (+)-(1RS,2SR,5RS)-2-[(6-Methyl-4-oxo-1,2,3-benzotriazin-3(4H)-yl)methyl]-5-[4-(tetrahydro-2H-pyran-4-ylmethoxy)benzoyl]cyclopentanecarboxylic acid]

pIC50 [1]: 8.00
solubility at 24 h [2]: 80 µg/mL (≈ 139 µM)
Compound: O=C(O)[C@@H]1[C@@H](Cn2nnc3ccc(C(F)(F)F)cc3c2=O)CC[C@H]1C(=O)c1ccc(SCC2CCOCC2)cc1 (single isomer, unassigned) [Example 14, (−)-(1RS,2SR,5RS)-2-{[4-Oxo-6-(trifluoromethyl)-1,2,3-benzotriazin-3(4H)-yl]methyl}-5-{4-[(tetrahydro-2H-pyran-4-ylmethyl)sulphanyl]benzoyl}cyclopentanecarboxylic acid]
